Measurements published in article PMC11725127 (Acta Pharmaceutica Sinica. B, 2024).

Assays:
[1] = molecular target: ubiquitin-specific protease 2 (USP2) (Homo sapiens, UniProt O75604, C284S); assay: thermal stability shift; type: cell-based
[2] = molecular target: USP7 (Homo sapiens, UniProt Q93009); assay: in vitro gel-based GST-UBA52 cleavage assay; type: biochemical
[3] = molecular target: ubiquitin-specific protease 2 (USP2) (Homo sapiens, UniProt O75604); assay: LC-MS/MS covalent adduct on recombinant USP2; type: biochemical
Sequence of ubiquitin-specific protease 2 (USP2) (Homo sapiens, UniProt O75604) (O75604 259-605): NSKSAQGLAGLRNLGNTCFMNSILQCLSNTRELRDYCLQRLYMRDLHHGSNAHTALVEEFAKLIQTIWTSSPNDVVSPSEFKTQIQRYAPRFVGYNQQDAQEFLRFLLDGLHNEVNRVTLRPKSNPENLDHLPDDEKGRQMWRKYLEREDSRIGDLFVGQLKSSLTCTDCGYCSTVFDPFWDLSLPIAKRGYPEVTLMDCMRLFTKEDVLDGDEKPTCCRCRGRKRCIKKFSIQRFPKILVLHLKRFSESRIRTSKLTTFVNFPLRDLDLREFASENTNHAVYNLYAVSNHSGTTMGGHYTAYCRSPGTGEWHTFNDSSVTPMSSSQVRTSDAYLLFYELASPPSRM

Sequence of USP7 (Q93009 whole entry): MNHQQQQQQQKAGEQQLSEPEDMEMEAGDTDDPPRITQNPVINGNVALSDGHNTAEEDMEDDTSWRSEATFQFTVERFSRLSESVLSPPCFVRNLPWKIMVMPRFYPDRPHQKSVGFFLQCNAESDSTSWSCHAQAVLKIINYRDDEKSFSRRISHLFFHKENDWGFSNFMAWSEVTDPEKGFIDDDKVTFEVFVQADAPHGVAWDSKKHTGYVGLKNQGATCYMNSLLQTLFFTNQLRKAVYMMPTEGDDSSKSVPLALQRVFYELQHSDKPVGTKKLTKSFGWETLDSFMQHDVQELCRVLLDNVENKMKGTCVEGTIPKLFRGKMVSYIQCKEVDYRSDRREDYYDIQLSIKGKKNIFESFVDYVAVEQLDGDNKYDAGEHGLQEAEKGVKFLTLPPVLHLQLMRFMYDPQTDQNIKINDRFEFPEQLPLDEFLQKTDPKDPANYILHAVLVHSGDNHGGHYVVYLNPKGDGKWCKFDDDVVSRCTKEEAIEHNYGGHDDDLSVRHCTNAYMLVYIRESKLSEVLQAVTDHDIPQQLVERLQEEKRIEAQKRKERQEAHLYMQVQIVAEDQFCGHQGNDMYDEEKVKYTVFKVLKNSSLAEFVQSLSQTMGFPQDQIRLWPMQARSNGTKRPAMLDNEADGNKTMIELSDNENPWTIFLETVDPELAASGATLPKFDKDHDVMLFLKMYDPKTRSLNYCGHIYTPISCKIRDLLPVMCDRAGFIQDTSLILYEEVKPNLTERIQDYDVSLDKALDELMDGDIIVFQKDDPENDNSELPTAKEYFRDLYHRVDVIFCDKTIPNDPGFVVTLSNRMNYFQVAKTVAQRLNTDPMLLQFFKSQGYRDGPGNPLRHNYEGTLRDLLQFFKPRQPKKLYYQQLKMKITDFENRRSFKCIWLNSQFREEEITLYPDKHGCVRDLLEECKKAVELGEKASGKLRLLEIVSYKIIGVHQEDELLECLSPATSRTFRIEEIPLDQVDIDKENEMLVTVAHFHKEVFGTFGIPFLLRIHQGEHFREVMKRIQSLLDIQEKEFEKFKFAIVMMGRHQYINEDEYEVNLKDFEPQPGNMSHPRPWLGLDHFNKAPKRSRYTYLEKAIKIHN
Sequence of ubiquitin-specific protease 2 (USP2) (Homo sapiens, UniProt O75604, C284S) (O75604 whole entry C284S): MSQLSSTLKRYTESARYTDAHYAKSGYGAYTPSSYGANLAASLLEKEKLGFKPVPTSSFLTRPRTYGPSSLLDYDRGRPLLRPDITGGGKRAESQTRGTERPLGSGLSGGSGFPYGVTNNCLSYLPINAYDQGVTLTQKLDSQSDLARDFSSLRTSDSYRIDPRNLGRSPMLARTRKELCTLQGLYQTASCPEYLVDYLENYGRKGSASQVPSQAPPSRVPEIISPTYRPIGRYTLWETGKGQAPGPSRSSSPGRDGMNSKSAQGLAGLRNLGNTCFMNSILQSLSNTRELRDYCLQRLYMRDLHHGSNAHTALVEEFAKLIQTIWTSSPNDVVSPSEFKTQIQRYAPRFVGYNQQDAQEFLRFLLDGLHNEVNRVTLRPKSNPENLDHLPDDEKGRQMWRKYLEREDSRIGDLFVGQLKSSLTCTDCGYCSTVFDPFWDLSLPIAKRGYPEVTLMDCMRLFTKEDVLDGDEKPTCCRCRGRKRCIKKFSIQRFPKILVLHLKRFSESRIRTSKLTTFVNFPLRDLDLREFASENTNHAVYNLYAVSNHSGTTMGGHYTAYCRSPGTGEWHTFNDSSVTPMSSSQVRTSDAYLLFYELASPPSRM

## CC(C)=CCC[C@]1(C)C=Cc2c(O)c3c(c(CC=C(C)C)c2O1)O[C@]12C(=C[C@@H]4C[C@H]1C(C)(C)O[C@@]2(C/C=C(/C)C(=O)O)C4=O)C3=O [GA, gambogic acid]
[1]
  thermal stability shift (Fig. S15): the thermal stability of USP2^Cys284S could also be altered by GA
[2]
  IC50: 17 µM
[3]
  IC50: 1.8 µM
